ChEMBL document CHEMBL3352542, “Synthesis, biological evaluation and molecular modeling study of 2-(1,3,4-thiadiazolyl-thio and 4-methyl-thiazolyl-thio)-quinazolin-4-ones as a new class of DHFR inhibitors” (Bioorg Med Chem Lett, 2014)
Activity calls are given as the source filed them. The rule behind the calls is not given here.

Experiments:
RPMI-8226 = assay: Growth inhibition of human RPMI8226 cells at 10 uM after 48 hrs; type: functional
UACC-62 = assay: Growth inhibition of human UACC62 cells at 10 uM after 48 hrs; type: functional
KM12 = assay: Growth inhibition of human KM12 cells at 10 uM after 48 hrs; type: functional
MOLT-4 = assay: Growth inhibition of human MOLT4 cells at 10 uM after 48 hrs; type: functional
Malme-3M = assay: Growth inhibition of human MALME-3M cells at 10 uM after 48 hrs; type: functional
NCI-H226 = assay: Growth inhibition of human NCI-H226 cells at 10 uM after 48 hrs; type: functional
UO-31 = assay: Growth inhibition of human UO31 cells at 10 uM after 48 hrs; type: functional
Hs-578T = assay: Growth inhibition of human Hs 578T cells at 10 uM after 48 hrs; type: functional
SK-MEL-5 = assay: Growth inhibition of human SK-MEL-5 cells at 10 uM after 48 hrs; type: functional
UACC-257 = assay: Growth inhibition of human UACC257 cells at 10 uM after 48 hrs; type: functional
Escherichia coli = assay: Antimicrobial activity against Escherichia coli assessed as inhibition zone at 200 ug/disk after 24 hrs by disc-diffusion method; type: functional; conditions: read-out: IZ
A498 = assay: Growth inhibition of human A498 cells at 10 uM after 48 hrs; type: functional
HOP-62 = assay: Growth inhibition of human HOP62 cells at 10 uM after 48 hrs; type: functional
CCRF-CEM = assay: Growth inhibition of human CCRF-CEM cells at 10 uM after 48 hrs; type: functional
MDA-MB-468 = assay: Growth inhibition of human MDA-MB-468 cells at 10 uM after 48 hrs; type: functional
T47D = assay: Growth inhibition of human T47D cells at 10 uM after 48 hrs; type: functional
MCF7 = assay: Growth inhibition of human MCF7 cells at 10 uM after 48 hrs; type: functional
PC-3 = assay: Growth inhibition of human PC3 cells at 10 uM after 48 hrs; type: functional
RXF 393 = assay: Growth inhibition of human RXF393 cells at 10 uM after 48 hrs; type: functional
CAKI-1 = assay: Growth inhibition of human CAKI-1 cells at 10 uM after 48 hrs; type: functional
HCT-15 = assay: Growth inhibition of human HCT15 cells at 10 uM after 48 hrs; type: functional
786-0 = assay: Growth inhibition of human 786-0 cells at 10 uM after 48 hrs; type: functional
Staphylococcus aureus = assay: Antimicrobial activity against Staphylococcus aureus assessed as inhibition zone at 200 ug/disk after 24 hrs by disc-diffusion method; type: functional; conditions: read-out: IZ
Candida albicans = assay: Antimicrobial activity against Candida albicans assessed as inhibition zone at 200 ug/disk after 24 hrs by disc-diffusion method; type: functional; conditions: read-out: IZ
Bacillus subtilis = assay: Antimicrobial activity against Bacillus subtilis assessed as inhibition zone at 200 ug/disk after 24 hrs by disc-diffusion method; type: functional; conditions: read-out: IZ
MDA-MB-435 = assay: Growth inhibition of human MDA-MB-435 cells at 10 uM after 48 hrs; type: functional
U-251 = assay: Growth inhibition of human U251 cells at 10 uM after 48 hrs; type: functional
SNB-19 = assay: Growth inhibition of human SNB19 cells at 10 uM after 48 hrs; type: functional
SK-MEL-28 = assay: Growth inhibition of human SK-MEL-28 cells at 10 uM after 48 hrs; type: functional, cell-based
NCI-H522 = assay: Growth inhibition of human NCI-H522 cells at 10 uM after 48 hrs; type: functional
HOP-92 = assay: Growth inhibition of human HOP92 cells at 10 uM after 48 hrs; type: functional
A549 = assay: Growth inhibition of human A549 cells at 10 uM after 48 hrs; type: functional
MDA-MB-231 = assay: Growth inhibition of human MDA-MB-231 cells at 10 uM after 48 hrs; type: functional
SF-295 = assay: Growth inhibition of human SF295 cells at 10 uM after 48 hrs; type: functional
Pseudomonas aeruginosa = assay: Antimicrobial activity against Pseudomonas aeruginosa assessed as inhibition zone at 200 ug/disk after 24 hrs by disc-diffusion method; type: functional; conditions: read-out: IZ
HT-29 = assay: Growth inhibition of human HT-29 cells at 10 uM after 48 hrs; type: functional
K562 = assay: Growth inhibition of human K562 cells at 10 uM after 48 hrs; type: functional
HCT-116 = assay: Growth inhibition of human HCT116 cells at 10 uM after 48 hrs; type: functional
SF-539 = assay: Growth inhibition of human SF539 cells at 10 uM after 48 hrs; type: functional
Dihydrofolate reductase = molecular target: T1, Dihydrofolate reductase (Bos taurus, UniProt P00376); assay: Inhibition of bovine liver DHFR
T1 sequence (P00376 whole entry): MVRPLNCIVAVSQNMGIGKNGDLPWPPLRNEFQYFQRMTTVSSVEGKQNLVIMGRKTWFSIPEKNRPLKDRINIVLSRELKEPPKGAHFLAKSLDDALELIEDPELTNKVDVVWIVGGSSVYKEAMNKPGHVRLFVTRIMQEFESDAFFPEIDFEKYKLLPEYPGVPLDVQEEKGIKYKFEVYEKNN

HL-60(TB) = assay: Growth inhibition of human HL-60(TB) cells at 10 uM after 48 hrs; type: functional
OVCAR-4 = assay: Growth inhibition of human OVCAR4 cells at 10 uM after 48 hrs; type: functional
SR = assay: Growth inhibition of human SR cells at 10 uM after 48 hrs; type: functional

SMILES: Cc1ccc2nc(Sc3nnc(N)s3)n(-c3ccccc3)c(=O)c2c1
- growth inhibition (GI) (RPMI-8226): inactive
- growth inhibition (GI) (UACC-62): inactive
- growth inhibition (GI) (KM12): inactive
- growth inhibition (GI) (MOLT-4): inactive
- growth inhibition (GI) (Malme-3M): inactive
- growth inhibition (GI) (NCI-H226): inactive
- growth inhibition (GI) (UO-31): inactive
- growth inhibition (GI) (Hs-578T): inactive
- growth inhibition (GI) (SK-MEL-5): inactive
- growth inhibition (GI) (UACC-257): inactive
- zone of inhibition at 200 µg/disc (Escherichia coli): 8 mm
- growth inhibition (GI) (A498): inactive
- growth inhibition (GI) (HOP-62): inactive
- growth inhibition (GI) (CCRF-CEM): inactive
- growth inhibition (GI) (MDA-MB-468): inactive
- growth inhibition (GI) (T47D): inactive
- growth inhibition (GI) (MCF7): inactive
- growth inhibition (GI) (PC-3): inactive
- growth inhibition (GI) (RXF 393): inactive
- growth inhibition (GI) (CAKI-1): inactive
- growth inhibition (GI) (HCT-15): inactive
- growth inhibition (GI) (786-0): inactive
- zone of inhibition at 200 µg/disc (Staphylococcus aureus): 8 mm
- zone of inhibition at 200 µg/disc (Candida albicans): 8 mm
- zone of inhibition at 200 µg/disc (Bacillus subtilis): 8 mm
- growth inhibition (GI) (MDA-MB-435): inactive
- growth inhibition (GI) (U-251): inactive
- growth inhibition (GI) (SNB-19): inactive
- growth inhibition (GI) (SK-MEL-28): inactive
- growth inhibition (GI) (NCI-H522): inactive
- growth inhibition (GI) (HOP-92): inactive
- growth inhibition (GI) (A549): inactive
- growth inhibition (GI) (MDA-MB-231): inactive
- growth inhibition (GI) (SF-295): inactive
- zone of inhibition at 200 µg/disc (Pseudomonas aeruginosa): 8 mm
- growth inhibition (GI) (HT-29): inactive
- growth inhibition (GI) (K562): inactive
- growth inhibition (GI) (HCT-116): inactive
- growth inhibition (GI) (SF-539): inactive
- IC50 (Dihydrofolate reductase): 7 µM
- growth inhibition (GI) (HL-60(TB)): inactive
- growth inhibition (GI) (OVCAR-4): inactive
- growth inhibition (GI) (SR): inactive

SMILES: COc1cc2nc(Sc3nnc(N)s3)n(-c3ccc(C)cc3)c(=O)c2cc1OC
- growth inhibition (GI) (RPMI-8226): inactive
- growth inhibition (GI) (UACC-62): inactive
- growth inhibition (GI) (KM12): inactive
- growth inhibition (GI) (MOLT-4): inactive
- growth inhibition (GI) (Malme-3M): inactive
- growth inhibition (GI) (NCI-H226): inactive
- growth inhibition (GI) (UO-31): inactive
- growth inhibition (GI) (Hs-578T): inactive
- growth inhibition (GI) (SK-MEL-5): inactive
- growth inhibition (GI) (UACC-257): inactive
- zone of inhibition at 200 µg/disc (Escherichia coli): 8 mm
- growth inhibition (GI) (A498): inactive
- growth inhibition (GI) (HOP-62): inactive
- growth inhibition (GI) (CCRF-CEM): inactive
- growth inhibition (GI) (MDA-MB-468): inactive
- growth inhibition (GI) (T47D): inactive
- growth inhibition (GI) (MCF7): inactive
- growth inhibition (GI) (PC-3): inactive
- growth inhibition (GI) (RXF 393): inactive
- growth inhibition (GI) (CAKI-1): inactive
- growth inhibition (GI) (HCT-15): inactive
- growth inhibition (GI) (786-0): inactive
- zone of inhibition at 200 µg/disc (Staphylococcus aureus): 14 mm
- zone of inhibition at 200 µg/disc (Candida albicans): 8 mm
- zone of inhibition at 200 µg/disc (Bacillus subtilis): 15 mm
- growth inhibition (GI) (MDA-MB-435): inactive
- growth inhibition (GI) (U-251): inactive
- growth inhibition (GI) (SNB-19): inactive
- growth inhibition (GI) (SK-MEL-28): inactive
- growth inhibition (GI) (NCI-H522): inactive
- growth inhibition (GI) (HOP-92): inactive
- growth inhibition (GI) (A549): inactive
- growth inhibition (GI) (MDA-MB-231): inactive
- growth inhibition (GI) (SF-295): inactive
- zone of inhibition at 200 µg/disc (Pseudomonas aeruginosa): 8 mm
- growth inhibition (GI) (HT-29): inactive
- growth inhibition (GI) (K562): inactive
- growth inhibition (GI) (HCT-116): inactive
- growth inhibition (GI) (SF-539): inactive
- IC50 (Dihydrofolate reductase): 1 µM
- growth inhibition (GI) (HL-60(TB)): inactive
- growth inhibition (GI) (OVCAR-4): inactive
- growth inhibition (GI) (SR): inactive
